# Reference: patent US20250320496A1, “MODULATION OF ABCB11 GENE TRANSCRIPTION USING ANTISENSE OLIGONUCLEOTIDES TARGETING REGULATORY RNAS” (CAMP4 Therapeutics Corporation, priority 2022, published 2025)
# Strand notation (5' to 3'): a small letter for the sugar, then the base; units joined by * are phosphorothioate-linked, units joined directly phosphodiester-linked; [ ] holds rarer units or linkages, { } end groups; capitals alone tell only the bases. e = 2'-O-(2-methoxyethyl) (MOE); l = locked nucleic acid (LNA); [5mC] = 5-methylcytosine; d = 2'-deoxy (DNA)
# System: human ABCB11 mRNA
# Assay: ASO treatment of primary human hepatocytes (PHH), ABCB11 mRNA by RT-qPCR normalized to B2M
# Assay type: cell-based
# Details: primary human hepatocytes, 5 μM ASO with PO-modifications, normalized to untreated hepatocytes
# Method in brief: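 Plated primary human hepatocytes were treated 4 h post-thaw with ASO (e.g., 1.25–10 μM; initial screen 5 μM) in medium containing 0.3 mg/ml Matrigel for 72 hrs. Total RNA was reverse-transcribed and ABCB11 mRNA measured by Taqman RT-qPCR, normalized to B2M, with fold change versus untreated PHHs.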
row,Substance,ABCB11 FC mRNA (5 μM ASO vs. untreated) [fold change]
1,CO-11203 (antisense eT*eG*eT*eTeT*eT*eG*e[5mC]eT*eT*eG*eGeT*e[5mC]*eA*eAeG*eA*eG*eG),1.38
2,CO-11222 (antisense eG*eT*lG*eG*eAlGe[5mC]*eA*lA*eA*e[5mC]*lT*eA*eGlGe[5mC]*eA*l[5mC]*eT*eG),1.79
3,CO-11238 (antisense eG*eT*eGeG*lA*eG*e[5mC]*eAeA*lA*e[5mC]*eT*eAeG*lG*e[5mC]*eA*e[5mC]eT*eG),1.26
4,CO-12752 (antisense eG*eTeG*eA*eG*eGe[5mC]*eA*eT*e[5mC]eA*eG*eG*eTeA*eA*eG*eTeT*e[5mC]),0.99
5,CO-11242 (antisense eG*eTeG*eG*lAeG*e[5mC]*eAeA*lA*e[5mC]eT*eA*eGlG*e[5mC]*eAe[5mC]*eT*eG),1.49
6,CO-12750 (antisense eG*eT*eG*eAeG*eG*e[5mC]*eAeT*e[5mC]*eA*eGeG*eT*eA*eAeG*eT*eT*e[5mC]),1.39
7,CO-11226 (antisense eG*eT*lGeG*eA*lG*e[5mC]*eAlA*eA*e[5mC]*lT*eAeG*lG*e[5mC]*eA*l[5mC]eT*eG),2.31
8,CO-11237 (antisense eG*eTeGeGlAeGe[5mC]*eA*eA*lA*e[5mC]*eT*eA*eGlGe[5mC]eAe[5mC]eT*eG),1.56

# Same assay, conditions: primary human hepatocytes, 5 μM ASO, normalized to untreated PHHs (UNT)
row,Substance,ABCB11 mRNA FC (5 μM ASO vs. UNT) [fold change]
1,CO-4493 (antisense eA*eT*eG*eG*eT*eG*eA*eG*eA*eG*eT*eG*eT*eG*eG*eT*eT*e[5mC]*eA*eA),1.178
2,CO-4490 (antisense e[5mC]*eG*eA*eG*eA*eA*eA*eA*eT*eG*eA*eG*eG*eT*eA*e[5mC]*eA*eT*eG*eG),1.158
3,CO-7043 (antisense eT*eT*eG*e[5mC]*eT*eT*eG*eG*eT*e[5mC]*eA*eA*eG*eA*eG*eG*eA*eA*eA*eG),1.1
4,CO-6995 (antisense eG*eT*eG*eA*eG*lG*d[5mC]*dA*lT*d[5mC]*dA*lG*dG*dT*lA*eA*eG*eT*eT*e[5mC]),1.277
5,CO-6997 (antisense eG*eT*eG*eA*lG*dG*d[5mC]*dA*lT*d[5mC]*dA*dG*lG*dT*dA*eA*lG*eT*eT*e[5mC]),1.058
6,CO-7067 (eT*e[5mC]*eT*eG*lG*eA*eA*eA*eA*lT*eA*eA*eT*eG*l[5mC]*e[5mC]*eT*eT*eT*e[5mC]; antisense),1.081
7,CO-7057 (antisense eA*e[5mC]*eT*eG*e[5mC]*eT*e[5mC]*eA*e[5mC]*e[5mC]*e[5mC]*e[5mC]*e[5mC]*e[5mC]*eT*e[5mC]*eA*e[5mC]*e[5mC]*eT),1.145
8,CO-4060 (antisense eG*eG*eA*eGeT*eGeA*eGeA*eG*eG*e[5mC]*eA*eT*eT*eT*eA*eG*eG*eG),1.117
9,CO-7047 (antisense eG*eA*eG*eT*eT*eG*eT*eG*eT*eT*eT*eT*eG*e[5mC]*eT*eT*eG*eG*eT*e[5mC]),1.175
10,CO-7189: derivative ASO with additional chemical modifications based on parent ASO CO-4535 (antisense eT*eG*lG*e[5mC]*lG*eT*lT*eA*lT*eT*lA*eA*lT*eT*l[5mC]*eT*lA*e[5mC]*eA*eG),1.487
11,CO-3989 (antisense eA*eA*eG*eA*eT*eG*e[5mC]*eT*eA*e[5mC]*eA*eA*eT*eT*eG*e[5mC]*e[5mC]*eA*eT*eA),1.19
12,CO-7048 (antisense eT*eG*eG*eA*eG*eT*eT*eG*eT*eG*eT*eT*eT*eT*eG*e[5mC]*eT*eT*eG*eG),1.175
13,CO-4040 (antisense eG*eT*eT*eT*e[5mC]*e[5mC]*e[5mC]*eA*eA*eG*e[5mC]*eA*e[5mC]*eA*e[5mC]*eT*e[5mC]*eT*eG*eT),0.921
14,CO-7153 (antisense eA*e[5mC]*e[5mC]*eT*eT*eA*eG*eG*eA*eG*eG*eA*eT*eT*eA*eT*eT*eT*eA*eA*e[5mC]*e[5mC]*eT*e[5mC]),1.409
15,CO-4522 (antisense e[5mC]*eA*e[5mC]*eT*eG*eG*e[5mC]*e[5mC]*e[5mC]*eA*eT*e[5mC]*eA*eA*eT*eT*eG*e[5mC]*eA*eT),1.027
16,CO-4503 (antisense eA*eT*eT*eG*eT*eA*eG*eG*eT*eG*e[5mC]eT*eG*e[5mC]*eG*eG*eG*eT*eA*eT),1.202
17,CO-4484 (antisense eG*e[5mC]*eT*eA*eA*eT*e[5mC]*e[5mC]*eA*eA*e[5mC]*e[5mC]*eA*e[5mC]*eT*eT*e[5mC]*eA*eA*e[5mC]),1.113
18,CO-7022 (antisense eT*e[5mC]*eT*eG*eG*dA*dA*dA*dA*dT*dA*dA*dT*dG*d[5mC]*e[5mC]*eT*eT*eT*e[5mC]),1.224
19,CO-7198 (eG*eG*eT*eG*eG*lA*dG*d[5mC]*lA*dA*dA*d[5mC]*dT*lA*dG*dG*l[5mC]*eA*e[5mC]*eT*eG*eA; antisense),1.075
20,CO-7002 (antisense eG*eT*eG*lA*eG*eG*e[5mC]*lA*eT*e[5mC]*eA*lG*eG*eT*eA*lA*eG*eT*eT*e[5mC]),1.367

row,Substance,ABCB11 mRNA FC (5 μM ASO vs. UNT) [fold change]
1,CO-4017 (antisense e[5mC]*eT*eG*e[5mC]*eT*e[5mC]*eA*eA*eA*eG*eT*eA*eA*eA*eA*eA*eT*eA*e[5mC]*e[5mC]),1.228
2,CO-6998 (antisense eG*eT*eG*lA*eG*lG*e[5mC]*lA*eT*l[5mC]*eA*lGeG*lT*eA*lA*eG*lT*eT*e[5mC]),1.246
3,CO-4527 (antisense eG*eA*eG*e[5mC]*eA*eT*e[5mC]*eA*eG*eG*eT*eA*e[5mC]*e[5mC]*eA*eT*eG*eA*e[5mC]*eA),0.97
4,CO-7019 (antisense eA*eA*eG*eT*eG*dA*dG*eG*d[5mC]*dA*eT*d[5mC]*dA*eG*dG*dT*eA*dA*dG*eT*eT*e[5mC]*e[5mC]*eT),1.284
5,CO-7200 (eA*eG*eG*eT*eG*eG*eA*eG*e[5mC]*eA*eA*eA*e[5mC]*eT*eA*eG*eG*e[5mC]*eA*e[5mC]*eT*eG*eA*eG; antisense),1.277
6,CO-7187: derivative ASO with additional chemical modifications based on parent ASO CO-4535 (antisense eT*eG*eG*e[5mC]*lG*dT*dT*dA*lT*dT*dA*dA*lT*dT*d[5mC]*eT*lA*e[5mC]*eA*eG),1.544
7,CO-7066 (eT*e[5mC]*eT*eG*eG*lA*eA*eA*eA*eT*lA*eA*eT*eG*e[5mC]*l[5mC]*eT*eT*eT*e[5mC]; antisense),1.2
8,CO-4022 (antisense eG*eA*eT*eG*eA*e[5mC]*eT*e[5mC]*eT*eT*eG*eG*eT*eT*eG*e[5mC]*eT*eG*eT*e[5mC]),1.168
9,CO-7099 (eA*eT*e[5mC]*eT*eG*eG*eA*eA*eA*eA*eT*eA*eA*eT*eG*e[5mC]*e[5mC]*eT*eT*eT*e[5mC]*eT; antisense),0.882
10,CO-7065 (eT*e[5mC]*eT*lG*eG*eA*eA*lA*eA*eT*eA*lA*eT*eG*e[5mC]*l[5mC]*eT*eT*eT*e[5mC]; antisense),1.262
11,CO-4500 (antisense eA*eG*eA*e[5mC]*eT*eT*eT*eG*eG*e[5mC]*e[5mC]*eA*eG*eG*e[5mC]*eA*eA*eG*eA*e[5mC]),1.109
12,CO-4030 (antisense eT*e[5mC]*eA*e[5mC]*eA*eG*eGeT*eA*eA*eG*eT*eA*eA*e[5mC]*eT*eT*eA*eT*eA),1.106
13,CO-4041 (antisense eT*e[5mC]*e[5mC]*eA*eA*eG*eG*e[5mC]*e[5mC]*eT*eG*eT*eT*eG*eA*e[5mC]*eA*e[5mC]*e[5mC]*e[5mC]),0.963
14,CO-7164 (antisense eA*eT*eT*e[5mC]*eT*eA*e[5mC]*eA*eG*eA*eG*eG*eG*eA*eG*e[5mC]*eA*eT*eA*eA),1.178
15,CO-6992 (antisense eT*eG*eG*lA*eT*eGeT*lA*eG*eA*eT*lG*eA*eA*eT*lG*eG*e[5mC]*eA*eA),0.992
16,CO-7183 (antisense eG*eT*eG*eG*eA*lG*e[5mC]*eA*eA*eA*l[5mC]*eT*eA*eG*eG*l[5mC]*eA*e[5mC]*eT*eG),1.295
17,CO-4495 (antisense eT*eG*eG*eT*eA*eT*e[5mC]*e[5mC]*eA*eT*eT*e[5mC]*eA*e[5mC]*eA*eA*eG*eG*eT*eG),1.07
18,CO-6670 (antisense eT*eA*eG*eT*eT*eT*eA*eG*eT*eT*eG*eA*e[5mC]*eT*eG*e[5mC]*eA*eG*eA*eG),1.157
19,CO-6982 (antisense eA*eA*eG*eA*e[5mC]*eA*eG*eA*eA*eG*eT*eG*eA*eG*eG*e[5mC]*eA*eT*e[5mC]*eA),0.976
